From patent publication US20260176283A1, “IONIZABLE LIPIDS WITH LINEAR HEAD GROUPS” (Beam Therapeutics Inc., priority 2023, published 2026)
Several values for one entry are separate records, joined by “and”; a condition that tells them apart may be missing. Equal entries are not always repeated.

Experiments:
ALAS1 target site = test: In vivo base editing with ABE mRNA and sgRNA targeting ALAS1; design: species or system Balb/c mice; details: for Liver Editing A->G (%): formulation ratio 50:38.5:1.5:10, liver, 4 days after dosing; for Quadrecept Editing A->G (%): formulation ratio 50:38.5:1.5:10, quadricep muscle
Experimental: (§1) Lipid nanoparticle components are dissolved in 100% ethanol at specified lipid component molar ratios. mRNA encoding an adenine base editor and a chemically-modified sgRNA is dissolved at a mass ratio of 1:1 in 10 mM citrate, 100 mM NaCl, pH 4.0, resulting in a concentration of NA cargo of approximately 0.22 mg/mL. LNP preparations are formulated with molar ratios of either 50% Ionizable Lipid: 38.5% Cholesterol: 1.5% PEG2000-DMG: 10% DSPC or 47.5% Ionizable Lipid: 40% Cholesterol: 2.5% PEG2000-DMG: 10% DSPC both at a total lipid to NA molar ratio of 6.
(§2) LNP preparations are formed by microfluidic mixing of the lipid and NA solutions using a Precision Nanosystems NanoAssemblr Ignite Instrument, according to the manufacturer's protocol. A 3:1 ratio of aqueous to organic solvent is maintained during mixing using differential flow rates. After mixing, LNP preparations are collected, diluted in PBS (approximately 2:1 v/v), and further buffer exchange is conducted using dialysis in PBS at 4° C. for 8 to 24 hours against a 20 kDa filter. After this initial dialysis, each individual LNP preparation is characterized via dynamic light scattering (DLS) to measure size and polydispersity. pKa of a subpopulation of LNP preparations is measured via TNS assay. After dialysis, LNP preparations are sterile filtered using 0.22 micron sterile filter and stored at 4° C. for further use. In some embodiments, LNP preparations may be concentrated using 100 kDa Amicon filters per manufacturer's protocol.
Male Balb/C mice aged approximately 8-12 weeks are used in the experiments described herein. Each mouse is temporarily restrained, and LNP preparations are administered IV via tail vein injection. Age-matched mice are also used to administer vehicle (1×PBS) via tail vein injection as a control. Four to six days post-dose, tissues including liver, spleen, heart and muscle are collected (only liver and muscle (quardracept) are reported). Genomic DNA is isolated and fragmented and adapter-ligated using the Nextera DNA Flex Library Prep Kit (Illumina) using the 96-well plate Nextera indexing primers (Illumina), according to the manufacturer's instructions. Library size and concentration is confirmed by Fragment Analyzer (Agilent) and sent to Novogene for whole genome sequencing using an Illumina HiSeq.
For base editing, mRNA encoding an adenine base editor (ABE) and a guide RNA (sgRNA) targeting ALAS1 at 1:1 (mass ratio) are coencapsulated in LNP preparations as described herein. LNP preparations are administrated into Balb/c mice through tail vein injections at concentrations ranging from 0.05 to 3.0 mg/kg total RNA. At 4 days after dosing, mice are euthanized and liver, spleen and bone barrow are harvested. Base editing is determined by performing targeted deep sequencing analysis at the ALAS1 target site using extracted genomic DNA.

[1] = LNP characterization of base editor LNP preparations (DLS diameter, PDI, encapsulation efficiency); format: physicochemical
Experimental: as §1, §2
DLS—LNP preparation hydrodynamic diameter and polydispersity index (PDI) is measured using high throughput dynamic light scattering (DLS) (DynaPro plate reader II, Wyatt). LNP preparations are diluted 1×PBS to an appropriate concentration and analyzed.
Concentration of NA is determined by Qubit microRNA kit (for siRNA) or HS RNA kit (for mRNA) per manufacturer's instructions. Encapsulation efficiency is determined by measuring unlysed and lysed LNPs.

[2] = LNP preparation characterization (encapsulation efficiency, DLS size and polydispersity), barcoded screen LNPs; format: physicochemical; details: LNP 47.5% ionizable lipid: 40% cholesterol: 2.5% PEG-2000 DMG: 10% DPSC, N/P 4.5-6; for AVG PDI / AVG Z Dia (nm): DLS
Experimental: Lipid nanoparticle components were dissolved in 100% ethanol at specified lipid component molar ratios. Nucleic acid (NA) cargo was dissolved in 10 mM citrate, 100 mM NaCl, pH 4.0, resulting in a concentration of NA cargo of approximately 0.22 mg/mL. In some embodiments, NA cargos included both a functional NA and a reporter barcode mixed at mass ratios of 1:10 to 10:1 functional NA to barcode. As described herein, a NA can be a siRNA, an anti-sense, an expressing DNA, or mRNA.
LNP preparations were prepared with 47.5% Ionizable Lipid (e.g., a compound provided herein): 40% cholesterol: 2.5% PEG-2000 DMG: 10% DPSC and an N/P ratio range of 4.5-6. LNP preparations were formed by microfluidic mixing of the lipid and NA solutions using Precision Nanosystems NanoAssemblr Spark or Benchtop series Instruments, according to the manufacturer's protocol.
A ratio of aqueous to organic solvent of approximately 2:1 or 3:1 was maintained during mixing using differential flow rates. After mixing, LNP preparations were collected, diluted in phosphate buffer saline (PBS) or Tris-buffered saline (TBS) (approximately 1:1 v/v). Further buffer exchange was conducted using dialysis in PBS or TBS at 4° C. for 4 to 24 hours against a 20 kDa filter. After this initial dialysis, each individual LNP preparation may be characterized via dynamic light scattering (DLS) to measure the size (e.g., diameter) and polydispersity. LNP preparations falling within specific diameter and polydispersity ranges were pooled, and further dialyzed against PBS or TBS at 4° C. for 1 to 4 hours against a 100 kDa dialysis cassette. After the second dialysis, LNP preparations were sterile filtered using 0.22 μm filter and stored at 4° C. for further use.

[3] = Table D LNPs, formulation ratio 50:38.5:1.5:10, ABE mRNA/ALAS1 sgRNA
[4] = Table C LNPs, formulation ratio 47.5:40:2.5:10, ABE mRNA/ALAS1 sgRNA

| SMILES | Diameter (nm) [1, 3] | EE (%) [1, 3] | PDI (%) [1, 3] | AVG EE(%) [2] | AVG PDI [2] | AVG Z Dia (nm) [2] | Diameter (nm) [1, 4] | EE (%) [1, 4] | PDI (%) [1, 4] | Quadrecept Editing A->G (%) (ALAS1 target site; dose 3 MPK IV) | further results |
| --- | --- | --- | --- | --- | --- | --- | --- | --- | --- | --- | --- |
| C=CCCCC(CCCC=C)COC(=O)CCCCCCC(=O)OCC(COC(=O)CCCCCCC(=O)OCC(CCCC=C)CCCC=C)COC(=O)CCCN1CCCC1 [Compound (15), 1-(2-1[(8-oxo-8-{[2-(pent-4-en-1-yl)hept-6-en-1-yl]oxy}octanoyl)oxy]methyl}-3-{[4-(pyrrolidin-1-yl)butanoyl]oxy}propyl) 8-[2-(pent-4-en-1-yl)hept-6-en-1-yl] octanedioate] | 96.6 nm | 94.81% | 11.6% | – | – | – | – | – | – | 4.05% | – |
| C=CCCCCCC(CCCCCC=C)OC(=O)CCCCCC(=O)OCCCC(CCCOC(=O)CCCCCC(=O)OC(CCCCCC=C)CCCCCC=C)OC(=O)CCCN1CCCC1 [Compound (22), O1-[7-[7-(1-hept-6-enyloct-7-enoxy)-7-oxo-heptanoyl]oxy-4-(4-pyrrolidin-1-ylbutanoyloxy)heptyl] O7-(1-hept-6-enyloct-7-enyl) heptanedioate] | – | – | – | 88.1% | 0.07 | 90.80 nm | 90.8 nm | 88.09% | 6.8% | – | – |
| C=CCCCC(CCCC=C)COC(=O)CCCCC(=O)OCC(COC(=O)CCCCC(=O)OCC(CCCC=C)CCCC=C)COC(=O)CCCN1CCCC1 [Compound (19), 1-(2-{[(6-Oxo-6-{[2-(pent-4-en-1-yl)hept-6-en-1-yl]oxy}hexanoyl)oxy]methyl}-3-{[4-(pyrrolidin-1-yl)butanoyl]oxy}propyl) 6-[2-(pent-4-en-1-yl)hept-6-en-1-yl] hexanedioate] | – | – | – | 98.2% | 0.08 | 130.75 nm | 123 nm | 57.3% | 9.9% | – | – |
| CC/C=C\CCCC(CCC/C=C\CC)OC(=O)CCCCCCC(=O)OCC(COC(=O)CCCCCCC(=O)OC(CCC/C=C\CC)CCC/C=C\CC)COC(=O)CCCN1CCCC1 [Compound (13), 1-{2-[({8-Oxo-8-[(3Z,12Z)-pentadeca-3,12-dien-8-yloxy]octanoyl}oxy)methyl]-3-{[4-(pyrrolidin-1-yl)butanoyl]oxy}propyl} 8-(3Z,12Z)-pentadeca-3,12-dien-8-yl octanedioate] | 79.7 nm | 96.75% | 27.9% | – | – | – | – | – | – | 0.37% | – |
| CC/C=C\CCCC(CCC/C=C\CC)COC(=O)CCCCC(=O)OCC(COC(=O)CCCCC(=O)OCC(CCC/C=C\CC)CCC/C=C\CC)COC(=O)CCCN1CCCC1 [Compound (24), 1-(6Z)-2-[(4Z)-Hept-4-en-1-yl]non-6-en-1-yl6-(2-{[(6-{[(6Z)-2-[(4Z)-hept-4-en-1-yl]non-6-en-1-yl]oxy}-6-oxohexanoyl)oxy]methyl}-3-{[4-(pyrrolidin-1-yl)butanoyl]oxy}propyl) hexanedioate] | – | – | – | 90.2% | 0.13 | 117.63 nm | – | – | – | – | – |
| C=CCCCCCC(CCCCCC=C)OC(=O)CCCCCC(=O)OCC(COC(=O)CCCCCC(=O)OC(CCCCCC=C)CCCCCC=C)COC(=O)CCCN1CCCC1 [Compound (9), 1-[2-({[7-Oxo-7-(pentadeca-1,14-dien-8-yloxy)heptanoyl]oxy}methyl)-3-{[4-(pyrrolidin-1-yl)butanoyl]oxy}propyl] 7-pentadeca-1,14-dien-8-yl heptanedioate] | 74.1 nm and 75.6 nm and 89.9 nm and 85.5 nm | 98.77% and 98.4% and 98.5% and 98.1% | 12.2% and 9.7% and 8.1% and 9.8% | – | – | – | – | – | – | – | Liver Editing A->G (%) (ALAS1 target site; dose 1.5 MPK IV): 90.8%; Quadrecept Editing A->G (%) (ALAS1 target site; dose 1.5 MPK IV): 8.22% |
| CC/C=C\CCCC(CCC/C=C\CC)OC(=O)CCCCCC(=O)OCC(COC(=O)CCCCCC(=O)OC(CCC/C=C\CC)CCC/C=C\CC)COC(=O)CCCN1CCCC1 [Compound (14), 1-{2-[({7-Oxo-7-[(3Z,12Z)-pentadeca-3,12-dien-8-yloxy]heptanoyl}oxy)methyl]-3-{[4-(pyrrolidin-1-yl)butanoyl]oxy}propyl} 7-(3Z,12Z)-pentadeca-3,12-dien-8-yl heptanedioate] | 74.2 nm and 87.2 nm and 88.8 nm and 111.4 nm and 90.2 nm and 83.6 nm | 98.94% and 98.27% and 98.68% and 98.67% and 97.86% and 97.95% | 11.6% and 9.6% and 11.5% and 8% and 11.4% and 10.2% | – | – | – | – | – | – | – | – |

The next lines start with results.

| Diameter (nm) [1, 3] | EE (%) [1, 3] | PDI (%) [1, 3] | AVG EE(%) [2] | AVG PDI [2] | AVG Z Dia (nm) [2] | Diameter (nm) [1, 4] | EE (%) [1, 4] | PDI (%) [1, 4] | SMILES | Quadrecept Editing A->G (%) (ALAS1 target site; dose 3 MPK IV) | further results |
| --- | --- | --- | --- | --- | --- | --- | --- | --- | --- | --- | --- |
| 71.6 nm | 98.66% | 11% | – | – | – | – | – | – | C=CCCCCCC(CCCCCC=C)OC(=O)CCCCCCC(=O)OCC(COC(=O)CCCCCCC(=O)OC(CCCCCC=C)CCCCCC=C)COC(=O)CCCN1CCCC1 [Compound (10), 1-[2-({[8-Oxo-8-(pentadeca-1,14-dien-8-yloxy)octanoyl]oxy}methyl)-3-{[4-(pyrrolidin-1-yl)butanoyl]oxy}propyl] 8-pentadeca-1,14-dien-8-yl octanedioate] | 3.6% | Liver Editing A->G (%) (ALAS1 target site; dose 3 MPK IV): 75.62% |
| – | – | – | – | – | – | 153.73 nm | 25% | 8.2% | O=C(CCCCC(=O)OC(CCCCCC(F)(F)F)CCCCCC(F)(F)F)OCC(COC(=O)CCCCC(=O)OC(CCCCCC(F)(F)F)CCCCCC(F)(F)F)COC(=O)CCCN1CCCC1 [Compound (20), 1-(1,1,1,13,13,13-Hexafluorotridecan-7-yl)6-{2-[({6-[(1,1,1,13,13,13-hexafluorotridecan-7-yl)oxy]-6-oxohexanoyl}oxy)methyl]-3-{[4-(pyrrolidin-1-yl)butanoyl]oxy}propyl} hexanedioate] | – | – |
| 72.1 nm | 99.03% | 11% | – | – | – | – | – | – | C=CCCCCCCC(CCCCCCC=C)OC(=O)CCCCCC(=O)OCC(COC(=O)CCCCCC(=O)OC(CCCCCCC=C)CCCCCCC=C)COC(=O)CCCN1CCCC1 [Compound (4), 1-Heptadeca-1,16-dien-9-yl-7-[2-({[7-(heptadeca-1,16-dien-9-yloxy)-7-oxoheptanoyl]oxy}methyl)-3-{[4-(pyrrolidin-1-yl)butanoyl]oxy}propyl] heptanedioate] | 4.16% | Liver Editing A->G (%) (ALAS1 target site; dose 3 MPK IV): 64.7% |
